In ChEMBL document CHEMBL3352247, “Synthesis and antimycobacterial evaluation of 5-alkylamino-N-phenylpyrazine-2-carboxamides” (Bioorg Med Chem, 2015):
The source made the active and inactive calls. No cut-off for these calls is given here.

Legend:
[1] = tested on: Enterococcus sp.; test: Antibacterial activity against Enterococcus sp. after 24 to 48 hrs by broth microdilution method; type: functional
[2] = tested on: Pseudomonas aeruginosa; test: Antibacterial activity against Pseudomonas aeruginosa CCM 1961 after 24 to 48 hrs by broth microdilution method; type: functional, organism-based
[3] = tested on: Staphylococcus aureus; test: Antibacterial activity against Staphylococcus aureus CCM 4516/08 after 24 to 48 hrs by broth microdilution method; type: functional, organism-based
[4] = tested on: Nakaseomyces glabratus; test: Antifungal activity against Candida glabrata 20/I after 24 to 48 hrs by two-fold dilution method; type: functional, organism-based
[5] = tested on: Klebsiella pneumoniae; test: Antibacterial activity against Klebsiella pneumoniae D 11750/08 clinical isolate after 24 to 48 hrs by broth microdilution method; type: functional, organism-based
[6] = tested on: Mycobacterium kansasii; test: Antimycobacterial activity against Mycobacterium kansasii CNCTC My 235/80 after 5 to 7 days by AlamarBlue assay; type: functional
[7] = tested on: Candida albicans; test: Antifungal activity against Candida albicans ATCC 44859 after 24 to 48 hrs by two-fold dilution method; type: functional, organism-based
[8] = tested on: Klebsiella pneumoniae; test: Antibacterial activity against ESBL-positive Klebsiella pneumoniae J 14368/08 clinical isolate after 24 to 48 hrs by broth microdilution method; type: functional, organism-based
[9] = tested on: Escherichia coli; test: Antibacterial activity against Escherichia coli CCM 4517 after 24 to 48 hrs by broth microdilution method; type: functional, organism-based
[10] = tested on: Enterococcus sp.; test: Antibacterial activity against Enterococcus sp. J 14365/08 clinical isolate after 24 to 48 hrs by broth microdilution method; type: functional, organism-based
[11] = tested on: Mycobacterium tuberculosis; test: Antimycobacterial activity against Mycobacterium tuberculosis H37Rv CNCTC My 331/88 after 10 to 14 days by AlamarBlue assay; type: functional
[12] = tested on: Staphylococcus aureus; test: Antibacterial activity against methicillin-resistant Staphylococcus aureus H 5996/08 clinical isolate after 24 to 48 hrs by broth microdilution method; type: functional, organism-based
[13] = tested on: Aspergillus fumigatus; test: Antifungal activity against Aspergillus fumigatus 231 after 24 to 48 hrs by two-fold dilution method; type: functional, organism-based
[14] = tested on: Staphylococcus epidermidis; test: Antibacterial activity against Staphylococcus epidermidis H 6966/08 clinical isolate after 24 to 48 hrs by broth microdilution method; type: functional, organism-based
[15] = tested on: Trichophyton mentagrophytes; test: Antifungal activity against Trichophyton mentagrophytes 445 after 72 to 120 hrs by two-fold dilution method; type: functional, organism-based
[16] = tested on: Trichosporon asahii; test: Antifungal activity against Trichosporon asahii 1188 after 24 to 48 hrs by two-fold dilution method; type: functional, organism-based
[17] = tested on: Lichtheimia corymbifera; test: Antifungal activity against Absidia corymbifera 272 after 24 to 48 hrs by two-fold dilution method; type: functional, organism-based
[18] = Antimycobacterial activity against Mycobacterium avium subsp. avium Chester CNCTC My 80/72 after 5 days by AlamarBlue assay; type: functional; settings: Chester CNCTC My 80/72, 120 h
[19] = tested on: Candida tropicalis; test: Antifungal activity against Candida tropicalis 156 after 24 to 48 hrs by two-fold dilution method; type: functional, organism-based
[20] = tested on: Pichia kudriavzevii; test: Antifungal activity against Candida krusei E28 after 24 to 48 hrs by two-fold dilution method; type: functional, organism-based

Structure (SMILES)	Activity [1]	Activity [2]	Activity [3]	Activity [4]	Activity [5]	MIC [6]	Activity [7]	Activity [8]	Activity [9]	Activity [10]	MIC [11]	Activity [12]	Activity [13]	Activity [14]	Activity [15]	Activity [16]	Activity [17]	MIC [18]	Activity [19]	Activity [20]
CCCCCNc1cnc(C(=O)Nc2ccccc2Cl)cn1	Active	inactive	inactive	inactive	inactive	> 100 µg/mL	inactive	inactive	inactive	inactive	> 100 µg/mL	inactive	inactive	inactive	inactive	inactive	inactive	> 100 µg/mL	inactive	inactive
CCCCCNc1cnc(C(=O)Nc2ccccc2)cn1	Active	inactive	inactive	inactive	inactive	11 µM	inactive	inactive	inactive	inactive	11 µM	inactive	inactive	inactive	inactive	inactive	inactive	> 100 µg/mL	inactive	inactive
CCCNc1cnc(C(=O)Nc2ccccc2Cl)cn1	Active	inactive	inactive	inactive	inactive	> 100 µg/mL	inactive	inactive	inactive	inactive	> 100 µg/mL	inactive	inactive	inactive	inactive	inactive	inactive	> 100 µg/mL	inactive	inactive
